US9890147B2 (BAYER PHARMA AKTIENGESELLSCHAFT, priority 2012, dated 2018)

Experiments:
BRD4 (BD1) = target: T1, BRD4 (BD1) (Homo sapiens, UniProt O60885); assay: Binding assay BRD4/acetylated peptide H4 (TR-FRET protein-protein interaction assay)
T1 construct: with relatively long constructs also being possible, preferably amino acids 44-168; made in house; host or cells: E. coli
In short: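 His6-BRD4 BD1 (aa 67-152, E. coli), usually 10 nM, with biotinylated tetra-acetylated H4 peptide in HEPES pH 7.5 buffer; 11 compound concentrations 0.1 nM–20 μM in duplicate, 10 min preincubation, 1 h at 22 °C then ≥3 h at 4 °C. TR-FRET 665/620 ratio; IC50 by 4-parameter fit.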

MOLM-13 cells = assay: Cell proliferation assay (alamarBlue), MOLM-13; type: cell-based; settings: Homo sapiens, 96 hours incubation, inhibition of cell proliferation
In short: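 Cells in RPMI1640/10% FCS read by alamarBlue fluorescence (ex 530, em 590 nm) after overnight 37 °C incubation, then treated at 1E-5 to 1E-8 M for 96 h. Pre-treatment values subtracted from endpoint values and compared with buffer-only wells; IC50 is 50% proliferation inhibition.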

| SMILES | IC50 (BRD4 (BD1)) [nM] | IC50 (MOLM-13 cells) [nM] |
| --- | --- | --- |
| CNC(=O)N1N=C(c2ccc(N3CCN(C)CC3)cc2)c2cc(OC)c(OC(F)F)cc2CC1C (racemic) [Example 163, (±)-7-(difluoromethoxy)-8-methoxy-N,4-dimethyl-1-[4-(4-methylpiperazin-1-yl)phenyl]-4,5-dihydro-3H-2,3-benzodiazepine-3-carboxamide] | 60 | 210 |
| CNC(=O)N1N=C(c2ccc(N3CCN(C)CC3)c(C#N)c2)c2cc(OC)c(OC)cc2C[C@@H]1C [Example 254, (4S)-1-[3-Cyano-4-(4-methylpiperazin-1-yl)phenyl]-7,8-dimethoxy-N,4-dimethyl-4,5-dihydro-3H-2,3-benzodiazepine-3-carboxamide] | 110 | 170 |
| CNC(=O)N1N=C(c2ccc(-c3cnccc3OC)cc2)c2cc(OC)c(OC)cc2CC1C (racemic) [Example 104, (±)-7,8-dimethoxy-1-[4-(4-methoxypyridin-3-yl)phenyl]-N,4-dimethyl-4,5-dihydro-3H-2,3-benzodiazepine-3-carboxamide] | 30 | 260 |
| CNC(=O)N1N=C(c2ccc(-c3c(C)noc3C)cc2)c2cc(N3CCOCC3)ccc2C[C@H]1C [Example 176.1, (4R)-1-[4-(3,5-Dimethylisoxazol-4-yl)phenyl]-N,4-dimethyl-8-(morpholin-4-yl)-4,5-dihydro-3H-2,3-benzodiazepine-3-carboxamide] | 730 | 2190 |
| CNC(=O)N1N=C(c2ccc(-c3cccc(C(=O)NCCN(C)C)c3)cc2)c2cc(OC)c(OC)cc2CC1C (racemic) [Example 113, (±)-1-(3′-{[2-(dimethylamino)ethyl]carbamoyl}biphenyl-4-yl)-7,8-dimethoxy-N,4-dimethyl-4,5-dihydro-3H-2,3-benzodiazepine-3-carboxamide] | 40 | 1420 |
| CNC(=O)N1N=C(c2ccc(F)c(-c3c(C)noc3C)c2)c2cc(OC)c(OC)cc2CC1C (racemic) [Example 58, (±)-1-[3-(3,5-dimethylisoxazol-4-yl)-4-fluoroophenyl]-7,8-dimethoxy-N,4-dimethyl-4,5-dihydro-3H-2,3-benzodiazepine-3-carboxamide] | 250 | 990 |
| CNC(=O)N1N=C(c2ccc(N3CC[C@H](O)C3)cc2)c2cc(OC)c(OC)cc2CC1C (mixture of isomers) [Example 190, (±)-1-{4-[(3S)-3-hydroxypyrrolidin-1-yl]phenyl}-7,8-dimethoxy-N,4-dimethyl-4,5-dihydro-3H-2,3-benzodiazepine-3-carboxamide] | 90 | 80 |
| CNC(=O)N1N=C(c2ccc(-n3cncn3)cc2)c2cc(OC)c(OC)cc2CC1C (racemic) [Example 152, (±)-7,8-Dimethoxy-N,4-dimethyl-1-[4-(1H-1,2,4-triazol-1-yl)phenyl]-4,5-dihydro-3H-2,3-benzodiazepine-3-carboxamide] | 70 | 430 |
| CNC(=O)N1N=C(c2ccc(N3CCN(C)CC3)cc2)c2cc(OC)c(OC(F)F)cc2C[C@@H]1C [Example 163.2, (4S)-7-(difluoromethoxy)-8-methoxy-N,4-dimethyl-1-[4-(4-methylpiperazin-1-yl)phenyl]-4,5-dihydro-3H-2,3-benzodiazepine-3-carboxamide] | 30 | 260 |
| CNC(=O)N1N=C(c2ccc(F)c(N3CCOCC3)c2)c2cc(OC)c(OC)cc2CC1C (racemic) [Example 144, (±)-1-[4-fluoro-3-(morpholin-4-yl)phenyl]-7,8-dimethoxy-N,4-dimethyl-4,5-dihydro-3H-2,3-benzodiazepine-3-carboxamide] | 190 | 960 |
| CC[C@H]1Cc2cc(OC)c(OC)cc2C(c2ccc(N3CCN(C)CC3)cc2)=NN1C(=O)NC [Example 201.1, (4S)-4-ethyl-7,8-dimethoxy-N-methyl-1-[4-(4-methylpiperazin-1-yl)phenyl]-4,5-dihydro-3H-2,3-benzodiazepine-3-carboxamide] | 710 | 1990 |
| CNC(=O)N1N=C(c2ccc(N3CCC(OC)CC3)cc2)c2cc(OC)c(OC)cc2CC1C (racemic) [Example 179, (±)-7,8-dimethoxy-1-[4-(4-methoxypiperidin-1-yl)phenyl]-N,4-dimethyl-4,5-dihydro-3H-2,3-benzodiazepine-3-carboxamide] | 70 | 290 |
| CNC(=O)N1N=C(c2ccc(-c3cn(C)nn3)cc2)c2cc(OC)c(OC)cc2C[C@@H]1C [Example 45.1, (4S)-7,8-dimethoxy-N,4-dimethyl-1-[4-(1-methyl-1H-1,2,3-triazol-4-yl)phenyl]-4,5-dihydro-3H-2,3-benzodiazepine-3-carboxamide] | 70 | 220 |
| CNC(=O)N1N=C(c2ccc(N3CCC3)cc2)c2cc(OC)c(OC)cc2C[C@H]1C [Example 128.1, (4R)-1-[4-(azetidin-1-yl)phenyl]-7,8-dimethoxy-N,4-dimethyl-4,5-dihydro-3H-2,3-benzodiazepine-3-carboxamide] | 3980 | > 10000 |
| CNC(=O)N1N=C(c2ccc(-c3c(C)noc3C)cc2)c2cc(OC)c(OC(F)F)cc2C[C@H]1C [Example 162.2, (4R)-7-(difluoromethoxy)-1-[4-(3,5-dimethylisoxazol-4-yl)phenyl]-8-methoxy-N,4-dimethyl-4,5-dihydro-3H-2,3-benzodiazepine-3-carboxamide] | 560 | 1680 |
| CNC(=O)N1N=C(c2ccc(F)c(N3CC(F)(F)C3)c2)c2cc(OC)c(OC)cc2CC1C (racemic) [Example 145, (±)-1-[3-(3,3-difluoroazetidin-1-yl)-4-fluorophenyl]-7,8-dimethoxy-N,4-dimethyl-4,5-dihydro-3H-2,3-benzodiazepine-3-carboxamide] | 110 | 830 |
| CNC(=O)N1N=C(c2ccc(Cl)cc2)c2ccc(-c3cn(C)nn3)cc2CC1C (racemic) [Example 243, (±)-1-(4-chlorophenyl)-N,4-dimethyl-7-(1-methyl-1H-1,2,3-triazol-4-yl)-4,5-dihydro-3H-2,3-benzodiazepine-3-carboxamide] | 320 | 340 |
| CNC(=O)N1N=C(c2ccc(F)c(-c3cnn(C)c3)c2)c2cc(OC)c(OC)cc2CC1C (racemic) [Example 57, (±)-1-[4-fluoro-3-(1-methyl-1H-pyrazol-4-yl)phenyl]-7,8-dimethoxy-N,4-dimethyl-4,5-dihydro-3H-2,3-benzodiazepine-3-carboxamide] | 90 | 790 |
| CNC(=O)N1N=C(c2ccc(-n3cnnn3)cc2)c2cc(OC)ccc2C[C@@H]1C [Example 30, (4S)-8-Methoxy-N,4-dimethyl-1-[4-(1H-tetrazol-1-yl)phenyl]-4,5-dihydro-3H-2,3-benzodiazepine-3-carboxamide] | 230 | 790 |
| CNC(=O)N1N=C(c2ccc(-c3c(C)nn(C)c3C)cc2)c2cc(OC)c(OC)cc2C[C@H]1C [Example 51.1, (4R)-7,8-dimethoxy-N,4-dimethyl-1-[4-(1,3,5-trimethyl-1H-pyrazol-4-yl)phenyl]-4,5-dihydro-3H-2,3-benzodiazepine-3-carboxamide] | 1860 | > 10000 |
| CNC(=O)N1N=C(c2ccc(N3CCN(C)CC3=O)cc2)c2cc(OC)c(OC)cc2CC1C (racemic) [Example 43, (±)-7,8-dimethoxy-N,4-dimethyl-1-[4-(4-methyl-2-oxopiperazin-1-yl)phenyl]-4,5-dihydro-3H-2,3-benzodiazepine-3-carboxamide] | 300 | 840 |
| CNC(=O)N1N=C(c2ccc(-c3ccc(O)nc3)cc2)c2cc(OC)c(OC)cc2C[C@@H]1C [Example 49.1, (4S)-1-[4-(6-hydroxypyridin-3-yl)phenyl]-7,8-dimethoxy-N,4-dimethyl-4,5-dihydro-3H-2,3-benzodiazepine-3-carboxamide] | 20 | 230 |
| CNC(=O)N1N=C(c2ccc(N3CCS(=O)(=O)CC3)cc2)c2cc(N3CCS(=O)(=O)CC3)c(OC(F)(F)F)cc2CC1C (racemic) [Example 215, (±)-8-(1,1-dioxidothiomorpholin-4-yl)-1-[4-(1,1-dioxidothiomorpholin-4-yl)phenyl]-N,4-dimethyl-7-(trifluoromethoxy)-4,5-dihydro-3H-2,3-benzodiazepine-3-carboxamide] | 380 | 2270 |
| CNC(=O)N1N=C(c2ccc(N3CCC(N(C)C)CC3)cc2)c2cc(OC)c(OC)cc2C[C@@H]1C [Example 180.2, (4S)-1-{4-[4-(dimethylamino)piperidin-1-yl]phenyl}-7,8-dimethoxy-N,4-dimethyl-4,5-dihydro-3H-2,3-benzodiazepine-3-carboxamide] | 60 | 50 |
| CNC(=O)N1N=C(c2ccc(-c3sc(C)nc3C)cc2)c2cc(OC)c(OC)cc2C[C@@H]1C (single isomer, unassigned) [Example 46.1] | 960 | 5140 |
| CNC(=O)N1N=C(c2ccc(-c3c(C)noc3C)cc2)c2cc(OC(F)F)c(OC(F)F)cc2CC1C (racemic) [Example 160, (±)-7,8-Bis(difluoromethoxy)-1-[4-(3,5-dimethylisoxazol-4-yl)phenyl]-N,4-dimethyl-4,5-dihydro-3H-2,3-benzodiazepine-3-carboxamide] | 260 | 400 |
| CNC(=O)N1N=C(c2ccc(N3CC(C)(O)C3)cc2)c2cc(OC)c(OC)cc2C[C@@H]1C [Example 185.2, (4S)-1-[4-(3-hydroxy-3-methylazetidin-1-yl)phenyl]-7,8-dimethoxy-N,4-dimethyl-4,5-dihydro-3H-2,3-benzodiazepine-3-carboxamide] | 30 | 100 |
